Reference: patent publication US20230134228A1, “SYNERGISTIC HERBAL COMPOSITION AS A BROAD-SPECTRUM PROPHYLACTIC MAJOR AND METHOD TO PREPARE THE SAME” (priority 2020, published 2023)

Assays:
Type in all cases: biochemical
[1] = Anti-oxidant assay (DPPH radical scavenging activity)
[2] = Lipid peroxidation (TBARS) inhibition assay; conditions: for TBARS Inhibition (%): Table 7
[3] = Hydroxyl radical scavenging activity; conditions: for TBARS Inhibition (%): Table 6 (hydroxyl radical scavenging)

For `O=C1O[C@H]([C@@H](O)CO)C(O)=C1O` [Ascorbic Acid, ascorbic acid], the “DPPH radical inhibition (%)” value ([1]; Conc. 3.125 μl/ml) was 29.93%, the “DPPH radical inhibition (%)” value ([1]; Conc. 6.25 μl/ml) was 52.42% and the “DPPH radical inhibition (%)” value ([1]; Conc. 12.5 μl/ml) was 71.28%. The “DPPH radical inhibition (%)” value ([1]; Conc. 25 μl/ml) was 87.88%, the “DPPH radical inhibition (%)” value ([1]; Conc. 50 μl/ml) was 92.05% and the “DPPH radical inhibition (%)” value ([1]; Conc. 100 μl/ml) was 95.01%. The “DPPH radical inhibition (%)” value ([1]; Conc. 200 μl/ml) was 29.93%, the “Inhibitory concentration [IC50], DPPH” value ([1]; from graph of % inhibition vs concentration) was 17.30 µg/mL and the “Inhibitory concentration [IC50], lipid peroxidation (TBARS)” value [2] was 20.32 µg/mL. For the same compound, the “TBARS Inhibition (%)” value ([2]; Conc. 6.25 μl/ml) was 36.0%, the “TBARS Inhibition (%)” value ([2]; Conc. 12.5 μl/ml) was 47.69% and the “TBARS Inhibition (%)” value ([2]; Conc. 25 μl/ml) was 54.76%. For the same compound, the “TBARS Inhibition (%)” value ([2]; Conc. 50 μl/ml) was 62.15%, the “TBARS Inhibition (%)” value ([2]; Conc. 100 μl/ml) was 68.92% and the “TBARS Inhibition (%)” value ([2]; Conc. 200 μl/ml) was 72.61%. For the same compound, the “Inhibitory concentration [IC50], hydroxyl radical” value [3] was 30.83 µg/mL, the “TBARS Inhibition (%)” value ([3]; Conc. 6.25 μl/ml) was 35.27% and the “TBARS Inhibition (%)” value ([3]; Conc. 12.5 μl/ml) was 42.80%. For the same compound, the “TBARS Inhibition (%)” value ([3]; Conc. 25 μl/ml) was 53.76%, the “TBARS Inhibition (%)” value ([3]; Conc. 50 μl/ml) was 64.72% and the “TBARS Inhibition (%)” value ([3]; Conc. 100 μl/ml) was 64.43%. For the same compound, the “TBARS Inhibition (%)” value ([3]; Conc. 200 μl/ml) was 76.71%.
